Test system: tumor cells A549
Assay: MTS proliferation test of tumor cells A549
Assay type: cell-based
Conditions: A549, 0-3.2 μM, 1.5 h exposure, then 48 h culture
Experimental: Plating the cultured tumor cells A549 in 96-well cell culture plates (100 μL, 5×10^4 cell/well), adding pure Adriamycin or samples with predetermined concentrations (0, 0.1 μM, 0.2 μM, 0.4 μM, 0.8 μM, 1.6 μM, 3.2 μM) into the wells respectively, culturing in a cell incubator for 1.5 h, centrifuging, removing the cell culture medium in the supernatant, adding fresh culture medium to continue culturing for 48 h, then testing the proliferation rate of the cells using a MTS reagent.

COc1cccc2c1C(=O)c1c(O)c3c(c(O)c1C2=O)C[C@@](O)(C(=O)CO)C[C@@H]3O[C@H]1C[C@H](N)[C@H](O)[C@H](C)O1 [Adriamycin]
inhibitory effect against tumor cells as the concentration increases (proliferation rate, MTS): increases gradually
